Columns and labels:
[1] = target: T1, recombinant human FLAP protein (Homo sapiens, UniProt P20292); experiment: FLAP binding assay (Scintillation Proximity Assay, displacement of [125I]L-691,831); details: recombinant human FLAP membranes, [125I]L-691,831 probe; read-out: FLAP SPA IC50
T1 construct: made in house; host or cells: Sf9 insect cells (100,000 x g membrane fraction)
T1 sequence (P20292 1-161): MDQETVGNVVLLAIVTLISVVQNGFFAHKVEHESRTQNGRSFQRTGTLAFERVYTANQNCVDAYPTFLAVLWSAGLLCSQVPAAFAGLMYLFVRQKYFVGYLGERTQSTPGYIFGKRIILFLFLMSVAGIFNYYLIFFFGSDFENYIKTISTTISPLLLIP
How it was run: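 WGA scintillation proximity beads were stirred 1 h with 5 μg of FLAP-containing membrane protein. The membranes came from baculovirus Sf9 cells, Dounce-lysed and spun to a 100,000×g pellet in buffer at pH 7.5.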

[2] = test system: synthesis of LTB4 in human whole blood; experiment: human whole blood LTB4 production inhibition assay; type: cell-based; details: Homo sapiens, heparinized human whole blood, calcimycin 20 μM; read-out: hWB LTB4 IC50
How it was run: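 Readout: plasma LTB4 by antibody-based HTRF. Compound added to heparinized human whole blood, 15 min 37° C; calcimycin 20 μM final (PBS pH 7.4), 30 min 37° C; spun 1500×g 5 min, plasma taken.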

Q: What does the source list for Nc1ncc(-c2ccc(C3(c4noc(-c5cnn(CCN6CCOCC6)c5)n4)CCC3)cc2)cn1 [Example 232, 5-[4-(1-{5-[1-(2-Morpholin-4-yl-ethyl)-1H-pyrazol-4-yl]-[1,2,4]oxadiazol-3-yl}-cyclobutyl)-phenyl]-pyrimidin-2-ylamine]?
A: IC50 [1]: 1.8 nM; IC50 [2]: 26 nM

Q: How did the IC50 [1] turn out when Nc1ncc(-c2ccc(C3(c4noc(-c5cnn(C6CCNCC6)c5)n4)CCC3)cc2)cn1 [Example 233, 5-(4-{1-[5-(1-Piperidin-4-yl-1H-pyrazol-4-yl)-[1,2,4]oxadiazol-3-yl]-cyclobutyl}-phenyl)-pyrimidin-2-ylamine] was run?
A: 9.8 nM

Q: What about the IC50 [2] of the same compound?
A: 700 nM

Q: For COC1CCN(C(=O)Cn2cc(-c3nc(C4(c5ccc(-c6cnc(N)nc6)cc5)CCC4)no3)cn2)CC1 [Example 234, 2-[4-(3-{1-[4-(2-Amino-pyrimidin-5-yl)-phenyl]-cyclobutyl}-[1,2,4]oxadiazol-5-yl)-pyrazol-1-yl]-1-(4-methoxy-piperidin-1-yl)-ethanone], which IC50 [1] is on record?
A: 3.5 nM

Q: And the IC50 [2]?
A: 82 nM

Q: For CN(C(=O)Cn1cc(-c2nc(C3(c4ccc(-c5cnc(N)nc5)cc4)CCC3)no2)cn1)C1CCOCC1 [Example 235, 2-[4-(3-{1-[4-(2-Amino-pyrimidin-5-yl)-phenyl]-cyclobutyl}-[1,2,4]oxadiazol-5-yl)-pyrazol-1-yl]-N-methyl-N-(tetrahydro-pyran-4-yl)-acetamide], which IC50 [1] is on record?
A: 1.7 nM

Q: And the IC50 [2]?
A: 67 nM

Q: Which IC50 [1] does the source give for COC1CN(C(=O)Cn2cc(-c3nc(C4(c5ccc(-c6cnc(N)nc6)cc5)CCC4)no3)cn2)C1 [Example 236, 2-[4-(3-{1-[4-(2-Amino-pyrimidin-5-yl)-phenyl]-cyclobutyl}-[1,2,4]oxadiazol-5-yl)-pyrazol-1-yl]-1-(3-methoxy-azetidin-1-yl)-ethanone] here?
A: 5.6 nM

Q: And the IC50 [2]?
A: 230 nM

Q: Which results are given for Nc1ncc(-c2ccc(C3(c4noc(-c5cnn(CC(=O)NC6CCNCC6)c5)n4)CCC3)cc2)cn1 [Example 237, 2-[4-(3-{1-[4-(2-Amino-pyrimidin-5-yl)-phenyl]-cyclobutyl}-[1,2,4]oxadiazol-5-yl)-pyrazol-1-yl]-N-piperidin-4-yl-acetamide]?
A: IC50 [1]: 2 nM; IC50 [2]: > 5000 nM

Q: With N#CCn1cc(-c2nc(C3(c4ccc(-c5cnc(N)nc5)cc4)CCC3)no2)cn1 [Example 238, [4-(3-{1-[4-(2-Amino-pyrimidin-5-yl)-phenyl]-cyclobutyl}-[1,2,4]oxadiazol-5-yl)-pyrazol-1-yl]-acetonitrile] as the compound, how does the IC50 [1] read?
A: 1 nM

Q: And the IC50 [2]?
A: 37 nM

Q: Which results are given for Nc1ncc(-c2ccc(C3(c4noc(-c5cnn(CC(=O)N6CCC(O)C6)c5)n4)CCC3)cc2)cn1 (stereo not drawn) [Example 239, 2-[4-(3-{1-[4-(2-Amino-pyrimidin-5-yl)-phenyl]-cyclobutyl}-[1,2,4]oxadiazol-5-yl)-pyrazol-1-yl]-1-(3-hydroxy-pyrrolidin-1-yl)-ethanone]?
A: IC50 [1]: 6.2 nM; IC50 [2]: 2500 nM

Q: For CN(C)CCn1cc(-c2nc(C3(c4ccc(-c5cnc(N)nc5)cc4)CCC3)no2)cn1 [Example 240, 5-[4-(1-{5-[1-(2-Dimethylamino-ethyl)-1H-pyrazol-4-yl]-[1,2,4]oxadiazol-3-yl}-cyclobutyl)-phenyl]-pyrimidin-2-ylamine], which IC50 [1] is on record?
A: 3.6 nM

Q: What about the IC50 [2] of the same compound?
A: 47 nM

Q: COCCN(C)C(=O)Cn1cc(-c2nc(C3(c4ccc(-c5cnc(N)nc5)cc4)CCC3)no2)cn1 [Example 241, 2-[4-(3-{1-[4-(2-Amino-pyrimidin-5-yl)-phenyl]-cyclobutyl}-[1,2,4]oxadiazol-5-yl)-pyrazol-1-yl]-N-(2-methoxy-ethyl)-N-methyl-acetamide] was tested. Which IC50 [1] did it give?
A: 3.5 nM

Q: What about the IC50 [2] of the same compound?
A: 140 nM

Q: Which results are given for CN(CC1CCCO1)C(=O)Cn1cc(-c2nc(C3(c4ccc(-c5cnc(N)nc5)cc4)CCC3)no2)cn1 (stereo not drawn) [Example 242, 2-[4-(3-{1-[4-(2-Amino-pyrimidin-5-yl)-phenyl]-cyclobutyl}-[1,2,4]oxadiazol-5-yl)-pyrazol-1-yl]-N-methyl-N-(tetrahydro-furan-2-ylmethyl)-acetamide]?
A: IC50 [1]: 5.4 nM; IC50 [2]: 120 nM

Q: Which results are given for CC(C)N1CCN(C(=O)Cn2cc(-c3nc(C4(c5ccc(-c6cnc(N)nc6)cc5)CCC4)no3)cn2)CC1 [Example 243, 2-[4-(3-{1-[4-(2-Amino-pyrimidin-5-yl)-phenyl]-cyclobutyl}-[1,2,4]oxadiazol-5-yl)-pyrazol-1-yl]-1-(4-isopropyl-piperazin-1-yl)-ethanone]?
A: IC50 [1]: 8.5 nM; IC50 [2]: 200 nM

Q: For Nc1ncc(-c2ccc(C3(c4noc(-c5cn(C(c6ccccc6)(c6ccccc6)c6ccccc6)cn5)n4)CCC3)cc2)cn1 [Example 244, 5-(4-{1-[5-(1-Trityl-1H-imidazol-4-yl)-[1,2,4]oxadiazol-3-yl]-cyclobutyl}-phenyl)-pyrimidin-2-ylamine], which IC50 [1] is on record?
A: 250 nM

Q: And the IC50 [2]?
A: > 5000 nM

Q: Which IC50 [1] does the source give for Cn1ccnc1-c1nc(C2(c3ccc(-c4cnc(N)nc4)cc3)CCC2)no1 [Example 245, 5-(4-{1-[5-(1-Methyl-1H-imidazol-2-yl)-[1,2,4]oxadiazol-3-yl]-cyclobutyl}-phenyl)-pyrimidin-2-ylamine] here?
A: 38 nM

Q: What about the IC50 [2] of the same compound?
A: 1700 nM

Q: N#CC1CCN(CCn2cc(-c3nc(C4(c5ccc(-c6cnc(N)nc6)cc5)CCC4)no3)cn2)CC1 [Example 246, 1-{2-[4-(3-{1-[4-(2-Amino-pyrimidin-5-yl)-phenyl]-cyclobutyl}-[1,2,4]oxadiazol-5-yl)-pyrazol-1-yl]-ethyl}-piperidine-4-carbonitrile] was tested. Which IC50 [1] did it give?
A: 8.1 nM

Q: And the IC50 [2]?
A: 79 nM

Q: Which IC50 [1] does the source give for CN(C(=O)Cn1cc(-c2nc(C3(c4ccc(-c5cnc(N)nc5)cc4)CCC3)no2)cn1)C1CCCOC1 (stereo not drawn) [Example 247, 2-[4-(3-{1-[4-(2-Amino-pyrimidin-5-yl)-phenyl]-cyclobutyl}-[1,2,4]oxadiazol-5-yl)-pyrazol-1-yl]-N-methyl-N-(tetrahydro-pyran-3-yl)-acetamide] here?
A: 8.2 nM

Q: What about the IC50 [2] of the same compound?
A: 88 nM

Q: For Cn1cc(-c2nc(C3(c4ccc(-c5ccc(C6CC6)nc5)cc4)CCC3)no2)cn1 [Example 248, 2-Cyclopropyl-5-(4-{1-[5-(1-methyl-1H-pyrazol-4-yl)-[1,2,4]oxadiazol-3-yl]-cyclobutyl}-phenyl)-pyridine], which IC50 [1] is on record?
A: 730 nM

Q: What about the IC50 [2] of the same compound?
A: > 5000 nM

Q: With CC(CN(C)C)n1cc(-c2nc(C3(c4ccc(-c5cnc(N)nc5)cc4)CCC3)no2)cn1 (stereo not drawn) [Example 249, 5-[4-(1-{5-[1-(2-Dimethylamino-1-methyl-ethyl)-1H-pyrazol-4-yl]-[1,2,4]oxadiazol-3-yl}-cyclobutyl)-phenyl]-pyrimidin-2-ylamine] as the compound, how does the IC50 [1] read?
A: 7.8 nM

Q: And the IC50 [2]?
A: 69 nM

Q: For CC(=O)N1CCN(CCn2cc(-c3nc(C4(c5ccc(-c6cnc(N)nc6)cc5)CCC4)no3)cn2)CC1 [Example 250, 1-(4-{2-[4-(3-{1-[4-(2-Amino-pyrimidin-5-yl)-phenyl]-cyclobutyl}-[1,2,4]oxadiazol-5-yl)-pyrazol-1-yl]-ethyl}-piperazin-1-yl)-ethanone], which IC50 [1] is on record?
A: 8.6 nM

Q: And the IC50 [2]?
A: 220 nM

Q: Which IC50 [1] does the source give for CN(C)C(=O)Cn1cnc(-c2nc(C3(c4ccc(-c5cnc(N)nc5)cc4)CCC3)no2)c1 [Example 251, 2-[4-(3-{1-[4-(2-Amino-pyrimidin-5-yl)-phenyl]-cyclobutyl}-[1,2,4]oxadiazol-5-yl)-imidazol-1-yl]-N,N-dimethyl-acetamide] here?
A: 36 nM

Q: What about the IC50 [2] of the same compound?
A: 2200 nM

Q: For Nc1ccc(-c2ccc(C3(c4noc(-c5cnn(C6COC6)c5)n4)CCC3)cc2)cn1 [Example 252, 5-(4-{1-[5-(1-Oxetan-3-yl-1H-pyrazol-4-yl)-[1,2,4]oxadiazol-3-yl]-cyclobutyl}-phenyl)-pyridin-2-ylamine], which IC50 [1] is on record?
A: 5.3 nM

Q: What about the IC50 [2] of the same compound?
A: 34 nM

Q: Which IC50 [1] does the source give for Nc1ncc(-c2ccc(C3(c4noc(-c5cnn(CCN6CCCC6)c5)n4)CCC3)cc2)cn1 [Example 253, 5-[4-(1-{5-[1-(2-Pyrrolidin-1-yl-ethyl)-1H-pyrazol-4-yl]-[1,2,4]oxadiazol-3-yl}-cyclobutyl)-phenyl]-pyrimidin-2-ylamine] here?
A: 8.1 nM

Q: What about the IC50 [2] of the same compound?
A: 75 nM

Q: For CC(C)(O)Cn1cc(-c2nc(C3(c4ccc(-c5cnc(N)nc5)cc4)CC3)no2)cn1 [Example 254, 1-[4-(3-{1-[4-(2-Amino-pyrimidin-5-yl)-phenyl]-cyclopropyl}-[1,2,4]oxadiazol-5-yl)-pyrazol-1-yl]-2-methyl-propan-2-ol], which IC50 [1] is on record?
A: 190 nM

Q: What about the IC50 [2] of the same compound?
A: 4700 nM

Q: Which IC50 [1] does the source give for Nc1ncc(-c2ccc(C3(c4noc(-c5cnn(C6COC6)c5)n4)CC3)cc2)cn1 [Example 255, 5-(4-{1-[5-(1-Oxetan-3-yl-1H-pyrazol-4-yl)-[1,2,4]oxadiazol-3-yl]-cyclopropyl}-phenyl)-pyrimidin-2-ylamine] here?
A: 150 nM

Q: What about the IC50 [2] of the same compound?
A: 1900 nM

Q: CO[C@@H]1CCN(C(=O)Cn2cc(-c3nc(C4(c5ccc(-c6cnc(N)nc6)cc5)CCC4)no3)cn2)C1 [Example 256, 2-[4-(3-{1-[4-(2-Amino-pyrimidin-5-yl)-phenyl]-cyclobutyl}-[1,2,4]oxadiazol-5-yl)-pyrazol-1-yl]-1-((R)-3-methoxy-pyrrolidin-1-yl)-ethanone] was tested. Which IC50 [1] did it give?
A: 22 nM

Q: What about the IC50 [2] of the same compound?
A: 220 nM

Q: For Cn1cc(-c2nc(C3(c4ccc(-c5cnc(N)nc5)cc4)CC3)no2)cn1 [Example 257, 5-(4-{1-[5-(1-Methyl-1H-pyrazol-4-yl)-[1,2,4]oxadiazol-3-yl]-cyclopropyl}-phenyl)-pyrimidin-2-ylamine], which IC50 [1] is on record?
A: 100 nM

Q: What about the IC50 [2] of the same compound?
A: 2200 nM

Q: Cn1cc(-c2nc(C3(c4ccc(-c5ccc(N)nn5)cc4)CCC3)no2)cn1 [Example 258, 6-(4-{1-[5-(1-Methyl-1H-pyrazol-4-yl)-[1,2,4]oxadiazol-3-yl]-cyclobutyl}-phenyl)-pyridazin-3-ylamine] was tested. Which IC50 [1] did it give?
A: 73 nM

Q: And the IC50 [2]?
A: 610 nM
